For experiment [1], the target named is recombinant BACE1 protein (Homo sapiens (Human), UniProt P56817). Kind of experiment: BACE1 biochemical FRET based assay. To be noted: for Selectivity: BACE1 versus BACE2; for IC50: FRET, pH 5.0. An excerpt: (1) BACE1 Biochemical FRET Based Assay
(§1) This assay is a Fluorescence Resonance Energy Transfer Assay (FRET) based assay. The substrate for this assay is an APP derived 13 amino acids peptide that contains the ‘Swedish’ Lys-Met/Asn-Leu mutation of the amyloid precursor protein (APP) beta-site secretase cleavage site. This substrate also contains two fluorophores: (7-methoxycoumarin-4-yl) acetic acid (Mca) is a fluorescent donor with excitation wavelength at 320 nm and emission at 405 nm and 2,4-dinitrophenol (Dnp) is a proprietary quencher acceptor. […] Upon cleavage by BACE1, the fluorophore Mca is separated from the quenching group Dnp, restoring the full fluorescence yield of the donor. The increase in fluorescence is linearly related to the rate of proteolysis.
Briefly in a 384-well format recombinant BACE1 protein in a final concentration of 0.04 μg/mL was incubated for 450 minutes at room temperature with […] substrate in incubation buffer (final concentrations: 33.3 mM Citrate buffer pH 5.0, 0.033% PEG, 3% DMSO) in the absence or presence of compound. Next the amount of proteolysis was directly measured by fluorescence measurement at T=0′-120′ and T=450′ (excitation at 320 nm and emission at 405 nm). Results were expressed in RFU (Relative Fluorescence Units), as difference between T450 and Tx (Tx is chosen depending on the reaction speed between 0 and 120 minutes).
(§2) A best-fit curve was fitted by a minimum sum of squares method to the plot of % Controlmin versus compound concentration. From this an IC50 value (inhibitory concentration causing 50% inhibition of activity) can be obtained.
(§3) LC=Median of the low control values
(§4) =Low control: Reaction without enzyme
(§5) HC=Median of the High control values
=High Control: Reaction with enzyme % Effect=100−[(sample−LC)/(HC−LC)*100] % Control=(sample/HC)*100 % Controlmin=(sample−LC)/(HC−LC)*100

Experiment [2] has as its target recombinant BACE2 protein (Homo sapiens (Human), UniProt Q9Y5Z0). As to the kind of experiment: BACE2 biochemical FRET based assay. To be noted: pH 5.0.
From the text: (2) BACE2 Biochemical FRET Based Assay
as §1, with “assay” for “assay is an APP derived 13 amino acids peptide that”, “beta-secretase” for “beta-site secretase”, “the beta-secretase,” for “BACE1,”
Briefly in a 384-well format recombinant BACE2 protein in a final concentration of 0.4 μg/mL was incubated for 450 minutes at room temperature with 10 μM substrate in incubation buffer (final concentrations: 33.3 mM Citrate buffer pH 5.0, 0.033% PEG, 2% DMSO) in the absence or presence of compound. Next the amount of proteolysis was directly measured by fluorescence measurement at T=0 and T=450 (excitation at 320 nm and emission at 405 nm). Results were expressed in RFU (Relative Fluorescence Units), as difference between T450 and TO.
as §2, §3, §4, §5

Each structure is given as a SMILES string.

Chain of recombinant BACE2 protein (Q9Y5Z0 63-518): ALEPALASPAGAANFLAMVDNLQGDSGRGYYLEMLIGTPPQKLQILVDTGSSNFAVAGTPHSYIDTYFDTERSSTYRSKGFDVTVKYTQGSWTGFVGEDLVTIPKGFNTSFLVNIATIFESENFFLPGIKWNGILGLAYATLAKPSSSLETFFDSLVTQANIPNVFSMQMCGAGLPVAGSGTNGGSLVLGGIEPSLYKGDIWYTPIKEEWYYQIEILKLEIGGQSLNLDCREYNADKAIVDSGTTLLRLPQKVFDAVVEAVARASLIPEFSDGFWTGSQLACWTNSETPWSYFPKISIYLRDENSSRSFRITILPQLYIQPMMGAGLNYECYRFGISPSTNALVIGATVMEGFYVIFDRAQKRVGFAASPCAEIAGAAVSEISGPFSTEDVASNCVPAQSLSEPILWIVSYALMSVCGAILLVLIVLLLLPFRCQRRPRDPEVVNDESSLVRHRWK
Chain of recombinant BACE1 protein (P56817 46-501): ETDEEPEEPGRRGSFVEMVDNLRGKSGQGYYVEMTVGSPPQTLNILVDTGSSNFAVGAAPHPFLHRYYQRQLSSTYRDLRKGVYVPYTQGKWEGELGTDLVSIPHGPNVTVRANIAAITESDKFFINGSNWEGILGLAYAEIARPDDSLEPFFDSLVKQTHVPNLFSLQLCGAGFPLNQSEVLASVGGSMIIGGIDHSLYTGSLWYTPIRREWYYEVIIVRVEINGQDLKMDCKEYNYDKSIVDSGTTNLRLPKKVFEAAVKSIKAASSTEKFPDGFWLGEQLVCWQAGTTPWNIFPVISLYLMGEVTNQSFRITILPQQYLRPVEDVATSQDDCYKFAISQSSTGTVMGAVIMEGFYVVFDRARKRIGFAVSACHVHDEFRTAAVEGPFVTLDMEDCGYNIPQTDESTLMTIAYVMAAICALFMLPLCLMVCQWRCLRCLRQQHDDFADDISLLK

In the case of `Cc1cc(C(F)(F)F)cnc1C(=O)Nc1ccc(F)c([C@@]2(CF)N=C(N)O[C@@H]3C[C@@H](C)OC[C@@H]32)c1` [Compound I-100], in experiment [1], the Selectivity was 15.5. The IC50 was determined as 16.6 nM in experiment [1] and 257 nM in experiment [2].
Taken in the same sequence, the figures for `NC1=N[C@](CF)(c2cc(NC(=O)c3cnc(OCC4(F)CC4)cn3)ccc2F)[C@H]2COCC[C@H]2O1` [Compound I-086] were 53.7, 10 nM and 537 nM.
The matching figures for `C[C@@H]1C[C@H]2OC(N)=N[C@](CF)(c3cc(NC(=O)c4ccc(C(F)(F)F)cn4)ccc3F)[C@H]2CO1` [Compound I-099]: 28.8, 19.1 nM and 550 nM.
Consider `NC1=N[C@](CF)(c2cc(NC(=O)c3cnc(OCF)cn3)ccc2F)[C@H]2[C@H](CF)OCC[C@H]2O1` [Compound I-010], for which the Selectivity in experiment [1] came out at 42.7. Further, the IC50 in experiment [1] was 10.7 nM; in experiment [2], 457 nM.
Consider `CC[C@@H]1OCC[C@H]2OC(N)=N[C@](CF)(c3cc(NC(=O)c4cnc(OCF)cn4)ccc3F)[C@@H]12` [Compound I-009], for which, in experiment [1], the Selectivity amounted to 44.7 and the IC50 stood at 15.5 nM. For the same compound, the IC50 in experiment [2] is 692 nM.
In the case of `NC1=N[C@](CF)(c2cc(NC(=O)c3cnc(OCC(F)F)cn3)ccc2F)[C@H]2COCC[C@H]2O1` [Compound I-079], the Selectivity in experiment [1] is 52.7. Also, the values for the IC50 in experiment [1] and in experiment [2] were 18.6 nM and 1000 nM, respectively.
Taken in the same sequence, the figures for `NC1=N[C@](CF)(c2cc(NC(=O)c3cnc(C(F)F)cn3)ccc2F)[C@H]2COCC[C@H]2O1` [Compound I-103] were 14.5, 21.9 nM and 316 nM.
As for `C[C@H]1COC[C@H]2[C@@H]1OC(N)=N[C@]2(CF)c1cc(NC(=O)c2cnc(OCF)cn2)ccc1F` [Compound I-074], in experiment [1], the Selectivity is on record as 36.3 and the IC50 was found to be 4.3 nM. Also, the half-inhibitory concentration (IC50) in experiment [2] worked out at 155 nM.
Take `NC1=N[C@](CF)(c2cc(NC(=O)c3cnc(OCC(F)(F)F)cn3)ccc2F)[C@H]2COCC[C@H]2O1` [Compound I-077]: the Selectivity in experiment [1] was determined as 223. The IC50 in experiment [1] was 8.1 nM; in experiment [2] it was 1820 nM.
Taken in the same sequence, the figures for `COc1cnc(C(=O)Nc2ccc(Cl)c([C@@]3(CF)N=C(N)O[C@@H]4C[C@@H](C)OC[C@@H]43)c2)cn1` [Compound I-068] were 24.5, 11.2 nM and 275 nM.
The matching figures for `C[C@@H]1C[C@H]2OC(N)=N[C@](CF)(c3cc(NC(=O)c4cnc(OC(F)F)cn4)ccc3F)[C@H]2CO1` [Compound I-089]: 56.2, 9.8 nM and 550 nM.
`COc1cnc(C(=O)Nc2ccc(F)c([C@@]3(CF)N=C(N)O[C@@H]4C[C@@H](C)OC[C@@H]43)c2)cn1` [Compound I-069]: in experiment [1], the Selectivity amounted to 123 and the IC50 turned out to be 11.7 nM. Besides, in experiment [2], the IC50 was 1440 nM.
As to `NC1=N[C@](CF)(c2cc(NC(=O)c3ccc(OC(F)F)cn3)ccc2F)[C@H]2COCC[C@H]2O1` [Compound I-078], the Selectivity in experiment [1] is listed as 25.1. Moreover, the figures for the IC50 in experiment [1] and in experiment [2] were 9.8 nM and 245 nM, respectively.
Take `C[C@@H]1C[C@H]2OC(N)=N[C@](CF)(c3cc(NC(=O)c4cnc(OCF)cn4)cc(F)c3F)[C@H]2CO1` [Compound I-061]: in experiment [1], the Selectivity is 53.7 and the IC50 was 17.4 nM. The IC50 in experiment [2] was found to be 933 nM.
The matching figures for `C[C@@H]1C[C@H]2OC(N)=N[C@](CF)(c3cc(NC(=O)c4cnc(C(F)F)cn4)ccc3F)[C@H]2CO1` [Compound I-088]: 11.2, 55 nM and 617 nM.
The matching figures for `NC1=N[C@](CF)(c2cc(NC(=O)c3ncc(C(F)(F)F)cc3Cl)ccc2F)[C@H]2COCC[C@H]2O1` [Compound I-108]: 10.0, 20 nM and 200 nM.
Take `[2H]C([2H])([2H])Oc1cnc(C(=O)Nc2ccc(F)c([C@@]3(CF)N=C(N)O[C@@H]4CCOC[C@@H]43)c2)cn1` [Compound I-104]: in experiment [1], the Selectivity amounted to 27.5 and the IC50 turned out to be 14.5 nM. In addition, the IC50 in experiment [2] worked out at 398 nM.
In the case of `C[C@@H]1OCC[C@H]2OC(N)=N[C@](CF)(c3cc(NC(=O)c4cnc(OCF)cn4)ccc3F)[C@@H]12` [Compound I-011], in experiment [1], the Selectivity is 31.6 and the IC50 stood at 13.2 nM. In addition, the IC50 in experiment [2] came out at 417 nM.
As to `NC1=N[C@](CF)(c2cc(NC(=O)c3cnc(OCF)cn3)ccc2F)[C@H]2COC3(CC3)C[C@H]2O1` [II-1], in experiment [1], the Selectivity is recorded as 44.7 and the IC50 turned out to be 21.9 nM. Also, the IC50 in experiment [2] stood at 977 nM.
Take `Cc1cc(C(F)(F)F)cnc1C(=O)Nc1ccc(F)c([C@@]2(CF)N=C(N)O[C@@H]3CCOC[C@@H]32)c1` [Compound I-106]: in experiment [1], the Selectivity was found to be 10.2. The figures for the IC50 in experiment [1] and in experiment [2] were 14.2 nM and 148 nM, respectively.
The matching figures for `NC1=N[C@](CF)(c2cc(NC(=O)c3cnc(C(F)(F)F)cn3)ccc2F)[C@H]2COCC[C@H]2O1` [Compound I-107]: 63.1, 53.7 nM and 3390 nM.
Turning to `CC[C@@H]1OCC[C@H]2OC(N)=N[C@](CF)(c3cc(NC(=O)c4cnc(OC(F)F)cn4)ccc3F)[C@@H]12` [Compound I-094], in experiment [1], the Selectivity is reported as 70.8 and the IC50 came to 5.9 nM. In experiment [2], the IC50 is 417 nM.
Regarding `NC1=N[C@](CF)(c2cc(NC(=O)c3cnc(C(F)(F)F)cn3)ccc2F)[C@H]2COCC[C@H]2O1` [Compound I-102], the Selectivity in experiment [1] is reported as 28.8. The IC50 in experiment [1] was determined as 33.9 nM; in experiment [2], 977 nM.
Taken in the same sequence, the figures for `C[C@@H]1C[C@H]2OC(N)=N[C@](CF)(c3cc(NC(=O)c4ncc(C(F)(F)F)cc4Cl)ccc3F)[C@H]2CO1` [Compound I-101] were 14.1, 28.2 nM and 398 nM.
For the compound `C[C@@H]1COC[C@H]2[C@@H]1OC(N)=N[C@]2(CF)c1cc(NC(=O)c2cnc(OCF)cn2)ccc1F` [Compound I-075], in experiment [1], the Selectivity amounted to 27.5 and the IC50 is 26 nM. In addition, the IC50 in experiment [2] amounted to 724 nM.
The matching figures for `CCOc1cnc(C(=O)Nc2ccc(F)c([C@@]3(CF)N=C(N)O[C@@H]4CCOC[C@@H]43)c2)cn1` [Compound I-109]: 18.6, 22.4 nM and 417 nM.

The record behind these values is patent US11629154B2, “Tetrahydropyranooxazine derivatives having selective BACE1 inhibitory activity” (SHIONOGI & CO., LTD., priority 2018, dated 2023).
